Source: the supplement of paper PMC10307832

Legend:
Test in all cases: relative viability (nuclei count vs DMSO), 5 days (fraction); higher = more cells survive
BAM7 + OSI-027 = compound: CCOC1=CC=CC=C1N=NC2=C(NN(C2=O)C3=NC(=CS3)C4=CC=CC=C4)C [BAM7] + COc1cccc2cc(-c3nc([C@H]4CC[C@H](C(=O)O)CC4)n4ncnc(N)c34)[nH]c12 [OSI-027] (partner 0.5 µM)
Outline: (§1)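 Values are medians from duplicate plates. Each reflects relative viability, defined as the nuclei count of treated wells over that of vehicle wells. Lung cancer cell lines in 1536-well plates were pin-tool dosed one day after seeding with one drug alone or with a fixed anchor-drug dose plus five library-drug doses (not always all listed) in √10 steps, then fixed, stained and imaged at 4× after 5 days.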

[1] = compound: CCn1c(-c2nonc2N)nc2c(C#CC(C)(C)O)ncc(OC[C@H]3CCCNC3)c21 + CCNC(=O)c1noc(-c2cc(C(C)C)c(O)cc2O)c1-c1ccc(CN2CCOCC2)cc1 [Luminespib] (partner 0.01 µM)
Outline: as §1

BAM7 + Phenformin = compound: CCOC1=CC=CC=C1N=NC2=C(NN(C2=O)C3=NC(=CS3)C4=CC=CC=C4)C [BAM7] + N=C(N)NC(=N)NCCc1ccccc1 [Phenformin] (partner 250 µM)
Outline: as §1

BAM7 + Linsitinib = compound: CCOC1=CC=CC=C1N=NC2=C(NN(C2=O)C3=NC(=CS3)C4=CC=CC=C4)C [BAM7] + C[C@]1(O)C[C@@H](c2nc(-c3ccc4ccc(-c5ccccc5)nc4c3)c3c(N)nccn32)C1 [Linsitinib] (partner 1 µM)
Outline: as §1

Cell Line | relative viability (BAM7 + OSI-027; first compound 0.5 µM) | relative viability (BAM7 + OSI-027; first compound 5 µM) | relative viability (BAM7 + OSI-027; first compound 15.81 µM) | relative viability (BAM7 + OSI-027; first compound 50 µM) | relative viability ([1]; first compound 0.01 µM) | relative viability ([1]; first compound 0.03162 µM) | relative viability ([1]; first compound 0.1 µM) | relative viability ([1]; first compound 0.3162 µM) | relative viability ([1]; first compound 1 µM) | relative viability (BAM7 + Phenformin; first compound 0.5 µM) | relative viability (BAM7 + Phenformin; first compound 5 µM) | relative viability (BAM7 + Phenformin; first compound 15.81 µM) | relative viability (BAM7 + Phenformin; first compound 50 µM) | relative viability (BAM7 + Linsitinib; first compound 0.5 µM) | relative viability (BAM7 + Linsitinib; first compound 5 µM) | relative viability (BAM7 + Linsitinib; first compound 15.81 µM) | relative viability (BAM7 + Linsitinib; first compound 50 µM)
LOU-NH91 | 0.717 | 0.729 | 0.729 | 0.801 | 0.34 | 0.365 | 0.374 | 0.319 | 0.316 | 0.689 | 0.795 | 0.66 | 0.66 | 0.912 | 0.936 | 0.893 | 0.996
NCI-H3122 | 1.03 | 1.11 | 1.01 | 1.28 | 0.0785 | 0.0949 | 0.101 | 0.072 | 0.0984 | 0.362 | 0.371 | 0.329 | 0.35 | 0.969 | 1.08 | 1 | 1.02
NCI-H460 | 0.525 | 0.468 | 0.55 | 0.624 | 0.0307 | 0.0313 | 0.0273 | 0.031 | 0.0375 | 0.521 | 0.573 | 0.513 | 0.534 | 1.02 | 0.765 | 0.653 | 0.754
NCI-H650 | 0.505 | 0.591 | 0.493 | 0.589 | 0.736 | 0.835 | 0.814 | 0.791 | 0.818 | 0.443 | 0.506 | 0.499 | 0.495 | 0.867 | 0.95 | 0.825 | 1.19
NCI-H661 | 0.662 | 0.704 | 0.761 | 0.686 | 0.89 | 0.95 | 0.947 | 0.965 | 0.995 | 0.241 | 0.258 | 0.264 | 0.298 | 0.672 | 0.605 | 0.433 | 0.601
NCI-H1793 | 0.271 | 0.267 | 0.25 | 0.233 | 0.24 | 0.237 | 0.212 | 0.189 | 0.233 | 0.342 | 0.338 | 0.348 | 0.317 | 0.971 | 1.15 | 0.653 | 0.789
NCI-H1734 | 0.606 | 0.657 | 0.602 | 0.647 | 0.189 | 0.194 | 0.177 | 0.145 | 0.219 | 0.41 | 0.491 | 0.392 | 0.401 | 0.946 | 1.07 | 0.821 | 0.937
LXF-289 | 0.923 | 0.909 | 0.761 | 0.802 | 0.604 | 0.822 | 0.627 | 0.617 | 0.701 | 0.556 | 0.552 | 0.524 | 0.516 | 1.02 | 1.04 | 0.955 | 0.962
